Source: ChEMBL document CHEMBL1149187, “Design, synthesis, and biological activity of 4-[(4-cyano-2-arylbenzyloxy)-(3-methyl-3H-imidazol-4-yl)methyl]benzonitriles as potent and selective farnesyltransferase inhibitors” (J Med Chem, 2004)
Values belong to the molecule of their own block, whether it stands above or below them.

Columns and labels:
[1] = biological target: T1, Protein farnesyltransferase (Homo sapiens, UniProt P49354+P49356); test: Effective concentration required for inhibition of farnesylation of Ras protein in NIH3T3 cells; format: functional, cell-based, Mus musculus
[2] = Half-life in dog upon oral administration; details: in vivo
[3] = Area under plasma concentration time curve in dog upon oral administration
in vivo [4] = details: dog, plasma
in vivo [5] = details: dog
[6] = biological target: Geranylgeranyl transferase type I (Homo sapiens, UniProt P49354+P53609); test: Inhibition of Geranylgeranyl transferase type I; format: protein-complex assay
[7] = biological target: T1, Protein farnesyltransferase; test: (§1) Inhibition of Farnesyltransferase; format: protein-complex assay
Canis familiaris [8] = test: Half-life in dog upon oral administration; Unable to calculate; format: ADME, organism-based, Canis lupus familiaris; details: in vivo
Canis familiaris [9] = species on record: Canis familiaris; test: Plasma clearance in dog; Unable to calculate; format: ADME, organism-based, Canis lupus familiaris; details: in vivo
[10] = biological target: T1, Protein farnesyltransferase; test: as §1; format: protein-complex assay; remark: listed apart in the source

EC50 [1]: 0.001 µM | half-life [2]: 2.2 h | AUC [3]: 0.26 µg·h/mL | clearance (in vivo [4]): 0.51 L/h/kg
SMILES: COCc1cccc(-c2cc(C#N)ccc2COC(c2ccc(C#N)cc2)c2cncn2C)c1 (stereo not given)

EC50 [1]: > 0.1 µM
SMILES: COc1cccc(-c2cc(C=O)ccc2COC(c2ccc(C#N)cc2)c2cncn2C)c1 (stereo not given)

EC50 [1]: 0.0091 µM | half-life [2]: 1.3 h | AUC [3]: 2.76 µg·h/mL | clearance (in vivo [4]): 0.31 L/h/kg
SMILES: Cn1cncc1C(OCc1ccc(C#N)cc1-c1ccc2c(c1)OC(F)(F)O2)c1ccc(C#N)cc1 (stereo not given)

EC50 [1]: > 0.1 µM
SMILES: Cn1cncc1C(OCc1ccc(C#N)cc1NS(=O)(=O)c1cccc2ccccc12)c1ccc(C#N)cc1 (stereo not given)

EC50 [1]: 0.0035 µM
SMILES: Cn1cncc1C(OCc1ccc(C#N)cc1C(=O)Nc1cccc(Cl)c1)c1ccc(C#N)cc1 (stereo not given)

EC50 [1]: > 0.1 µM
SMILES: COCC(=O)Nc1ccc(COC(c2ccc(C#N)cc2)c2cncn2C)c(-c2cccc(OC)c2)c1 (stereo not given)

EC50 [1]: 0.015 µM
SMILES: Cn1cncc1C(OCc1ccc(C#N)cc1-c1cccc2cccnc12)c1ccc(C#N)cc1 (stereo not given)

bioavailability (in vivo [5]): 96% | EC50 [1]: 0.012 µM | half-life [2]: 18.4 h | AUC [3]: 5.72 µg·h/mL | clearance (in vivo [4]): 0.19 L/h/kg
SMILES: Cn1cncc1C(OCc1ccc(C#N)cc1C(=O)Nc1ccccc1)c1ccc(C#N)cc1 (stereo not given)

EC50 [1]: 0.0177 µM
SMILES: COc1cccc(-c2cc(C#N)ccc2COC(c2ccc(Cl)cc2)c2cncn2C)c1 (stereo not given)

bioavailability (in vivo [5]): 15.2% | EC50 [1]: 0.0098 µM | half-life [2]: 0.9 h | AUC [3]: 0.1 µg·h/mL | clearance (in vivo [4]): 1.87 L/h/kg
SMILES: Cc1ncc(C(OCc2ccc(C#N)cc2-c2ccc3c(c2)OCO3)c2ccc(C#N)cc2)n1C (stereo not given)

EC50 [1]: > 0.1 µM
SMILES: COc1cccc(-c2cc(N)ccc2COC(c2ccc(C#N)cc2)c2cncn2C)c1 (stereo not given)

EC50 [1]: 0.15 µM
SMILES: Cn1cncc1C(OCc1ccc(C#N)cc1NCc1cc(F)cc(F)c1)c1ccc(C#N)cc1 (stereo not given)

EC50 [1]: 0.013 µM
SMILES: Cc1ccc(S(=O)(=O)Nc2cc(C#N)ccc2COC(c2ccc(C#N)cc2)c2cncn2C)cc1 (stereo not given)

EC50 [1]: 0.0052 µM | half-life [2]: 4.7 h | AUC [3]: 9.89 µg·h/mL | clearance (in vivo [4]): 0.4 L/h/kg
SMILES: Cn1cncc1C(OCc1ccc(C#N)cc1-c1cccc(Cl)c1)c1ccc(C#N)cc1 (stereo not given)

EC50 [1]: 0.008 µM | IC50 [6]: 0.024 µM | IC50 [7]: 0.0004 µM
SMILES: Cn1cncc1C(OCc1ccc(C#N)cn1)c1ccc(C#N)c(-c2cccc3ccccc23)c1 (stereo not given)

bioavailability (in vivo [5]): 65% | EC50 [1]: > 1 µM | AUC [3]: 9.85 µg·h/mL | T1/2 (Canis familiaris [8]): Unable to calculate | Clp (Canis familiaris [9]): Unable to calculate
SMILES: Cn1cncc1C(OCc1ccc(Cl)cc1-c1ccccc1Cl)c1ccc(C#N)cc1 (stereo not given)

EC50 [1]: 0.014 µM
SMILES: Cn1cncc1C(OCc1ccc(C#N)cc1-c1cccc2ccccc12)c1ccc(C#N)cc1 (stereo not given)

EC50 [1]: 0.525 µM
SMILES: Cn1cncc1C(OCc1ccc(Cl)cc1-c1ccc(Cl)cc1)c1ccc(C#N)cc1 (stereo not given)

EC50 [1]: 0.00081 µM
SMILES: COc1cccc(-c2cc([N+](=O)[O-])ccc2COC(c2ccc(C#N)cc2)c2cncn2C)c1 (stereo not given)

EC50 [1]: > 0.1 µM
SMILES: COC(=O)c1ccc(COC(c2ccc(C#N)cc2)c2cncn2C)c(-c2cccc(OC)c2)c1 (stereo not given)

EC50 [1]: 0.00019 µM | half-life [2]: 2.2 h | AUC [3]: 1.13 µg·h/mL | IC50 [10]: 0.00069 µM | clearance (in vivo [4]): 1 L/h/kg
SMILES: CCOc1cccc(-c2cc(C#N)ccc2COC(c2ccc(C#N)cc2)c2cncn2C)c1 (stereo not given)

EC50 [1]: > 0.1 µM
SMILES: Cn1cncc1C(OCc1ccc(C#N)cc1-c1cccc(Cl)c1)c1ccc(C(F)(F)F)cc1 (stereo not given)

EC50 [1]: > 0.1 µM
SMILES: N#Cc1ccc(C(OCc2ccc(C#N)cc2-c2ccc3c(c2)OCO3)c2cnccc2Cl)cc1 (stereo not given)

EC50 [1]: < 0.001 µM | half-life [2]: 2.7 h | AUC [3]: 3.66 µg·h/mL | clearance (in vivo [4]): 0.6 L/h/kg
SMILES: Cn1cncc1C(OCc1ccc(C#N)cc1-c1ccc2c(c1)OCO2)c1ccc(C#N)cc1 (stereo not given)

EC50 [1]: > 0.1 µM
SMILES: COc1cccc(-c2cc(NS(C)(=O)=O)ccc2COC(c2ccc(C#N)cc2)c2cncn2C)c1 (stereo not given)

EC50 [1]: 0.39 µM
SMILES: Cn1cncc1C(OCc1ccc(Cl)cc1-c1cccc(Cl)c1)c1ccc(C#N)cc1 (stereo not given)

EC50 [1]: 0.0033 µM
SMILES: Cn1cncc1C(OCc1ccc(C#N)cc1-c1cccc(Cl)c1)c1ccc(C#N)cc1F (stereo not given)

EC50 [1]: 0.0051 µM | half-life [2]: 6.7 h | AUC [3]: 1.53 µg·h/mL | clearance (in vivo [4]): 0.44 L/h/kg
SMILES: Cn1cncc1C(OCc1ccc(C#N)cc1-c1ccc(OC(F)(F)F)cc1)c1ccc(C#N)cc1 (stereo not given)

EC50 [1]: 0.1 µM
SMILES: COc1cccc(-c2cc(Cl)ccc2COC(c2ccc(C#N)cc2)c2cncn2C)c1 (stereo not given)

EC50 [1]: 0.154 µM
SMILES: Cc1ncc(C(OCc2ccc(C#N)cc2-c2cccc(Cl)c2)c2ccc(C#N)cc2)n1C (stereo not given)

EC50 [1]: 0.007 µM | half-life [2]: 3.6 h | AUC [3]: 0.76 µg·h/mL | clearance (in vivo [4]): 0.73 L/h/kg
SMILES: COc1ccc(-c2cc(C#N)ccc2COC(c2ccc(C#N)cc2)c2cncn2C)cc1 (stereo not given)

bioavailability (in vivo [5]): 71% | EC50 [1]: 0.036 µM | half-life [2]: 8.7 h | AUC [3]: 1.58 µg·h/mL | clearance (in vivo [4]): 0.48 L/h/kg
SMILES: Cn1cncc1C(OCc1ccc(C#N)cc1-c1cccc(Cl)c1)c1ccc(C#N)c(F)c1 (stereo not given)

IC50 [6]: 0.018 µM | IC50 [7]: 0.0003 µM
SMILES: Cn1cncc1C(OCc1ccc(C#N)cc1)c1ccc(C#N)c(-c2cccc3ccccc23)c1 (stereo not given)

EC50 [1]: > 0.1 µM
SMILES: Cc1ccc(-c2cc(C#N)ccc2COC(c2ccc(C#N)cc2)c2cncn2C)cc1 (stereo not given)

EC50 [1]: 0.13 µM
SMILES: COc1cccc(-c2cc(C#N)ccc2COC(c2ccc(C#N)c(Cl)c2)c2cncn2C)c1 (stereo not given)

EC50 [1]: 0.013 µM
SMILES: CCOc1ccc(-c2cc(C#N)ccc2COC(c2ccc(C#N)cc2)c2cncn2C)cc1 (stereo not given)

EC50 [1]: 0.096 µM
SMILES: Cn1cncc1C(OCc1ccc(C#N)cc1-c1ccc(F)c(F)c1)c1ccc(C#N)cc1 (stereo not given)

EC50 [1]: 0.0046 µM
SMILES: CCOc1cccc(-c2cc(Cl)ccc2COC(c2ccc(C#N)cc2)c2cncn2C)c1 (stereo not given)

EC50 [1]: > 0.1 µM
SMILES: Cn1cncc1C(OCc1ccc(C#N)cc1NS(=O)(=O)c1cccs1)c1ccc(C#N)cc1 (stereo not given)
